Target: T1, IL-17A (Homo sapiens, UniProt Q16552)
T1 sequence (Q16552 24-155): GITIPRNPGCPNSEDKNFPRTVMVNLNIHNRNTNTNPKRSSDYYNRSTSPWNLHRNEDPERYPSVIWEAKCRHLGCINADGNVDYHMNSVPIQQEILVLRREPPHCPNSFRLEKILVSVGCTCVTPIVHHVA
Assay: Inhibition of IL-17A induced IL-6 release from dermal fibroblast cell line (HDF cell line assay)
Format: cell-based
Conditions: human dermal fibroblasts stimulated with IL-17A (50 pM) + TNF-α (25 pM); IL-6 measured by HTRF; pIC50 = -log10[IC50], IC50 molar
From the text: Inhibition of IL-17A Induced IL-6 Release from Dermal Fibroblast Cell Line
The purpose of this assay is to test the neutralising ability to IL-17 proteins, in a human primary cell system. Stimulation of normal human dermal fibroblasts (HDF) with IL-17 alone produces only a very weak signal but in combination with certain other cytokines, such as TNFα, a synergistic effect can be seen in the production of inflammatory cytokines, i.e. IL-6.
HDFs were stimulated with IL-17A (50 pM) in combination with TNF-α (25 pM). The resultant IL-6 response was then measured using a homogenous time-resolved FRET kit from Cisbio. The kit utilises two monoclonal antibodies, one labelled with Eu-Cryptate (Donor) and the second with d2 or XL665 (Acceptor). The intensity of the signal is proportional to the concentration of IL-6 present in the sample (Ratio is calculated by 665/620×104).
The ability of a compound to inhibit IL-17 induced IL-6 release from human dermal fibroblasts is measured in this assay.
HDF cells (Sigma #106-05n) were cultured in complete media (DMEM+10% FCS+2 mM L-glutamine) and maintained in a tissue culture flask using standard techniques. Cells were harvested from the tissue culture flask on the morning of the assay using TrypLE (Invitrogen #12605036). The TrypLE was neutralised using complete medium (45 mL) and the cells were centrifuged at 300×g for 3 minutes. The cells were re-suspended in complete media (5 mL) counted and adjusted to a concentration of 3.125×10^4 cells/mL before being added to the 384 well assay plate (Corning #3701) at 40 μL per well. The cells were left for a minimum of three hours, at 37° C./5% CO2, to adhere to the plate.
Compounds were serially diluted in DMSO before receiving an aqueous dilution into a 384 well dilution plate (Greiner #781281), where 5 μL from the titration plate was transferred to 45 μL of complete media and mixed to give a solution containing 10% DMSO.
Mixtures of TNFα and IL-17 cytokine were prepared in complete media to final concentrations of TNFα 25 pM/IL-17A 50 pM, then 30 μL of the solution was added to a 384 well reagent plate (Greiner #781281).
10 μL from the aqueous dilution plate was transferred to the reagent plate containing 30 μL of the diluted cytokines, to give a 2.5% DMSO solution. The compounds were incubated with the cytokine mixtures for 5 h at 37° C. After the incubation, 10 μL was transferred to the assay plate, to give a 0.5% DMSO solution, then incubated for 18-20 h at 37° C./5% CO2.
From the Cisbio IL-6 FRET kit (Cisbio #62IL6PEB) europium cryptate and Alexa 665 were diluted in reconstitution buffer and mixed 1:1, as per kit insert. To a white low volume 384 well plate (Greiner #784075) were added FRET reagents (10 μL), then supernatant (10 μL) was transferred from the assay plate to Greiner reagent plate. The mixture was incubated at room temperature for 3 h with gentle shaking (<400 rpm) before being read on a Synergy Neo 2 plate reader (Excitation: 330 nm; Emission: […]).

Structure (SMILES)	IC50 [nM]
Cc1nonc1C(=O)NC(c1cn2ncc(C3COCCN3C(=O)C3CCC(F)(F)CO3)nc2n1)C1CCC(F)(F)CC1 (single isomer, unassigned) [Example 8]	126
Cc1nonc1C(=O)N[C@H](c1cn2ncc([C@H]3C[C@@](O)(C(F)(F)F)CCN3C(=O)C34CC(F)(C3)C4)nc2n1)C1CCC(F)(F)CC1 (single isomer, unassigned) [Example 33]	126
O=C(N[C@H](c1cn2ncc([C@H]3C[C@](O)(C(F)(F)F)CCN3C(=O)C34CC(F)(C3)C4)nc2n1)C1CCC(F)(F)CC1)C1(F)CC1 (single isomer, unassigned) [Example 12]	7940
Cc1nonc1C(=O)N[C@H](c1cn2ncc([C@@H]3COCCN3C(=O)C34CC(F)(C3)C4)nc2n1)C1CCC(F)(F)CC1 (single isomer, unassigned) [Example 3]	79.4
Cc1nonc1C(=O)N[C@H](c1cn2ncc([C@@H]3C[C@@](C)(O)CCN3C(=O)[C@@H]3CCC(F)(F)CO3)nc2n1)C1CCC(F)(F)CC1 (single isomer, unassigned) [Example 38]	126
CC(C)n1ncnc1C(=O)N[C@H](c1cn2ncc([C@@H]3C[C@@](O)(C(F)F)CCN3C(=O)[C@@H]3CCC(F)(F)CO3)nc2n1)C1CCC(F)(F)CC1 (single isomer, unassigned) [Example 49]	631
Cc1nonc1C(=O)N[C@H](c1cn2ncc([C@@H]3C[C@](O)(C(F)F)CCN3C(=O)C34CC(F)(C3)C4)nc2n1)C1CCC(F)(F)CC1 (single isomer, unassigned) [Example 28]	39.8
Cc1nonc1C(=O)N[C@H](c1cn2ncc([C@H]3COCCN3C(=O)C34CC(F)(C3)C4)nc2n1)C1CCC(F)(F)CC1 (single isomer, unassigned) [Example 4]	631
Cn1nccc1C(=O)N[C@H](c1cn2ncc([C@H]3C[C@](O)(C(F)F)CCN3C(=O)[C@@H]3CCC(F)(F)CO3)nc2n1)C1CCC(F)(F)CC1 (single isomer, unassigned) [Example 47]	631
Cc1nonc1C(=O)N[C@H](c1cn2ncc([C@H]3C[C@@](C)(O)CCN3C(=O)[C@@H]3CCC(F)(F)CO3)nc2n1)C1CCC(F)(F)CC1 (single isomer, unassigned) [Example 35]	126
Cc1nonc1C(=O)N[C@H](c1cn2ncc([C@@H]3COCCN3C(=O)[C@@H]3CCC(F)(F)CO3)nc2n1)[C@H]1CC[C@H](C(F)(F)F)CC1 (single isomer, unassigned) [Example 25]	316
Cc1nonc1C(=O)N[C@H](c1cn2ncc([C@@H]3C[C@@H](O)CCN3C(=O)[C@@H]3CCC(F)(F)CO3)nc2n1)C1CCC(F)(F)CC1 (single isomer, unassigned) [Example 44]	126
Cc1nonc1C(=O)N[C@H](c1cn2ncc([C@@H]3C[C@](O)(C(F)(F)F)CCN3C(=O)C34CC(F)(C3)C4)nc2n1)C1CCC(F)(F)CC1 (single isomer, unassigned) [Example 32]	63.1
CC(C)n1ncnc1C(=O)N[C@H](c1cn2ncc([C@H]3C[C@@](C)(O)CCN3C(=O)[C@@H]3CCC(F)(F)CO3)nc2n1)C1CCC(F)(F)CC1 (single isomer, unassigned) [Example 53]	501

Now those with a lower IC50, led by results:

IC50 [nM]	Structure (SMILES)
12.6	Cc1nonc1C(=O)N[C@H](c1cn2ncc([C@@H]3C[C@](C)(O)CCN3C(=O)C34CC(F)(C3)C4)nc2n1)C1CCC(F)(F)CC1 (single isomer, unassigned) [Example 36]
12.6	Cc1nonc1C(=O)N[C@H](c1cn2ncc([C@@H]3C[C@](O)(C(F)F)CCN3C(=O)[C@@H]3CCC(F)(F)CO3)nc2n1)C1CCC(F)(F)CC1 (single isomer, unassigned) [Example 30]
7.94	Cc1nonc1C(=O)N[C@H](c1cn2ncc(C3(C(=O)N4CC(F)(F)C(F)(F)C4)CCN(C4COC4)CC3)nc2n1)C1CCC(F)(F)CC1 [Example 54, N—[(S)-(4,4-Difluorocyclohexyl){3-[1-(oxetan-3-yl)-4-(3,3,4,4-tetrafluoropyrrolidine-1-carbonyl)piperidin-4-yl]imidazo[1,2-b][1,2,4]triazin-6-yl}methyl]-4-methyl-1,2,5-oxadiazole-3-carboxamide]
12.6	CC(C)n1ncnc1C(=O)N[C@H](c1cn2ncc([C@H]3C[C@@H](O)CCN3C(=O)[C@@H]3CCC(F)(F)CO3)nc2n1)C1CCC(F)(F)CC1 (single isomer, unassigned) [Example 50]
15.8	Cc1nonc1C(=O)N[C@H](c1cn2ncc(C3(C(=O)NCC(C)(F)F)CCN(C4COC4)CC3)nc2n1)C1CCC(F)(F)CC1 [Example 56, N—[(S)-(4,4-Difluorocyclohexyl){3-[4-(2,2-difluoropropylcarbamoyl)-1-(oxetan-3-yl)-piperidin-4-yl]imidazo[1,2-b][1,2,4]triazin-6-yl}methyl]-4-methyl-1,2,5-oxadiazole-3-carboxamide]
10	Cc1nonc1C(=O)N[C@H](c1cn2ncc([C@@H]3C[C@@](O)(C(F)F)CCN3C(=O)C34CC(F)(C3)C4)nc2n1)C1CCC(F)(F)CC1 (single isomer, unassigned) [Example 26]
3.98	Cc1nonc1C(=O)N[C@H](c1cn2ncc([C@@H]3COCCN3C(=O)[C@@H]3CCC(F)(F)CO3)nc2n1)C(C1CC1)C1CC1 (single isomer, unassigned) [Example 5]
15.8	Cc1nonc1C(=O)N[C@H](c1cn2ncc([C@H]3C[C@@](O)(C(F)F)CCN3C(=O)[C@@H]3CCC(F)(F)CO3)nc2n1)C1CCC(F)(F)CC1 (single isomer, unassigned) [Example 31]
6.31	Cc1nonc1C(=O)N[C@H](c1cn2ncc([C@@H]3C[C@@](O)(C(F)F)CCN3C(=O)[C@@H]3CCC(F)(F)CO3)nc2n1)C1CCC(F)(F)CC1 (single isomer, unassigned) [Example 22]
25.1	Cc1nonc1C(=O)N[C@H](c1cn2ncc([C@H]3C[C@@H](O)CCN3C(=O)[C@@H]3CCC(F)(F)CO3)nc2n1)C1CCC(F)(F)CC1 (single isomer, unassigned) [Example 43]
6.31	CC(C)n1ncnc1C(=O)N[C@H](c1cn2ncc([C@@H]3C[C@@](O)(C(F)F)CCN3C(=O)[C@@H]3CCC(F)(F)CO3)nc2n1)C1CCC(F)(F)CC1 (single isomer, unassigned) [Example 48]
12.6	Cn1nccc1C(=O)N[C@H](c1cn2ncc([C@@H]3C[C@@](O)(C(F)F)CCN3C(=O)[C@@H]3CCC(F)(F)CO3)nc2n1)C1CCC(F)(F)CC1 (single isomer, unassigned) [Example 46]
